Key:
Settings in all cases: incubation time: 72 h
[1] = tested on: CAL-51; assay: normalised viability (% of control), CellTiter-Blue; higher = more viable cells (about 100 = DMSO control)
Procedure, shortened: (§1)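 Vehicle (100) and a positive kill control (0) anchored the normalisation of each plate, and Z'-factor was used for quality control. Breast cancer cell lines in 20 µl suspension were incubated 72 h over compound in 5 µl medium in 384-well plates, followed by CellTiter-Blue at 560/590 nm. The value is normalised viability at a single listed concentration of the series.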

[2] = tested on: MDA-MB-231; assay: as above
Procedure, shortened: as §1

[3] = tested on: CAL-120; assay: as above
Procedure, shortened: as §1

[4] = tested on: HDQ-P1; assay: as above
Procedure, shortened: as §1

[5] = tested on: HCC1937; assay: as above
Procedure, shortened: as §1

[6] = tested on: CAL-148; assay: as above
Procedure, shortened: as §1

[7] = tested on: MFM-223; assay: as above
Procedure, shortened: as §1

[8] = tested on: HCC1599; assay: as above
Procedure, shortened: as §1

[9] = tested on: HCC1143; assay: as above
Procedure, shortened: as §1

[10] = tested on: BT-549; assay: as above
Procedure, shortened: as §1

[11] = tested on: BT-474; assay: as above
Procedure, shortened: as §1

[12] = tested on: CAL-85-1; assay: as above
Procedure, shortened: as §1

[13] = tested on: MDA-MB-468; assay: as above
Procedure, shortened: as §1

[14] = tested on: DU-4475; assay: as above
Procedure, shortened: as §1

[15] = tested on: MDA-MB-436; assay: as above
Procedure, shortened: as §1

[16] = tested on: MDA-MB-453; assay: as above
Procedure, shortened: as §1

[17] = tested on: SK-BR-3; assay: as above
Procedure, shortened: as §1

[18] = tested on: CAL-51; assay: normalised viability (% of control), CellTiter-Blue; higher = more viable cells (100 = DMSO, 0 = benzethonium chloride kill control)
Procedure, shortened: as §1

[19] = tested on: MDA-MB-231; assay: as above
Procedure, shortened: as §1

[20] = tested on: CAL-120; assay: as above
Procedure, shortened: as §1

[21] = tested on: HDQ-P1; assay: as above
Procedure, shortened: as §1

[22] = tested on: MFM-223; assay: as above
Procedure, shortened: as §1

[23] = tested on: HCC1143; assay: as above
Procedure, shortened: as §1

[24] = tested on: Hs578T; assay: as above
Procedure, shortened: as §1

[25] = tested on: DU-4475; assay: as above
Procedure, shortened: as §1

[26] = tested on: SK-BR-3; assay: as above
Procedure, shortened: as §1

O=C(NC[C@H](O)CO)c1ccncc1Nc1ccc(I)cc1F showed a normalised viability ([1]; 3 nM) of 111%, a normalised viability ([1]; 30 nM) of 88.5% and a normalised viability ([1]; 100 nM) of 85.8%. For the same compound, the normalised viability ([2]; 10 nM) was 75.5%, the normalised viability ([2]; 1000 nM) was 31.7% and the normalised viability ([2]; 10000 nM) was 31.4%. The normalised viability ([3]; 10 nM) was 85.1%, the normalised viability ([3]; 1000 nM) was 55.7% and the normalised viability ([3]; 10000 nM) was 43.1%. The normalised viability ([4]; 3 nM) was 107%, the normalised viability ([4]; 30 nM) was 97.8% and the normalised viability ([4]; 100 nM) was 91.9%. For the same compound, the normalised viability ([5]; 10 nM) was 94.6%, the normalised viability ([5]; 1000 nM) was 87.8% and the normalised viability ([5]; 10000 nM) was 79.8%. For the same compound, the normalised viability ([6]; 3 nM) was 86%, the normalised viability ([6]; 30 nM) was 86.4% and the normalised viability ([6]; 100 nM) was 82.7%. The normalised viability ([7]; 10 nM) was 90.2%, the normalised viability ([7]; 1000 nM) was 86% and the normalised viability ([7]; 10000 nM) was 52.2%. The normalised viability ([8]; 10 nM) was 108%, the normalised viability ([8]; 1000 nM) was 78% and the normalised viability ([8]; 10000 nM) was 67.2%. It also gave a normalised viability ([9]; 10 nM) of 69.5%, a normalised viability ([9]; 1000 nM) of 55.4% and a normalised viability ([9]; 10000 nM) of 50.1%. The normalised viability ([10]; 10 nM) was 93.2%, the normalised viability ([10]; 1000 nM) was 88.6% and the normalised viability ([10]; 10000 nM) was 88%. It also gave a normalised viability ([11]; 10 nM) of 107%, a normalised viability ([11]; 1000 nM) of 104% and a normalised viability ([11]; 10000 nM) of 114%. It also gave a normalised viability ([12]; 3 nM) of 79.1%, a normalised viability ([12]; 30 nM) of 83.4% and a normalised viability ([12]; 100 nM) of 85.7%. For the same compound, the normalised viability ([13]; 10 nM) was 97.7%, the normalised viability ([13]; 1000 nM) was 85.7% and the normalised viability ([13]; 10000 nM) was 60.7%. It also gave a normalised viability ([14]; 3 nM) of 79.2%, a normalised viability ([14]; 30 nM) of 16.4% and a normalised viability ([14]; 100 nM) of 1.76%. It also gave a normalised viability ([15]; 10 nM) of 92.2%, a normalised viability ([15]; 1000 nM) of 85.6% and a normalised viability ([15]; 10000 nM) of 79.2%. The normalised viability ([16]; 3 nM) was 99.6%, the normalised viability ([16]; 30 nM) was 89.2% and the normalised viability ([16]; 100 nM) was 90.9%. It also gave a normalised viability ([17]; 10 nM) of 98.4%, a normalised viability ([17]; 1000 nM) of 102% and a normalised viability ([17]; 10000 nM) of 55.5%. The normalised viability ([18]; 1 nM) was 99.6%, the normalised viability ([19]; 1 nM) was 92.5% and the normalised viability ([20]; 1 nM) was 81.3%. The normalised viability ([21]; 1 nM) was 103%, the normalised viability ([22]; 1 nM) was 97.9% and the normalised viability ([23]; 1 nM) was 87.6%. For the same compound, the normalised viability ([24]; 1 nM) was 111%, the normalised viability ([25]; 1 nM) was 92.6% and the normalised viability ([26]; 1 nM) was 92.1%.

In the case of Nc1nc(=O)c2c([nH]1)NCC(CNc1ccc(C(=O)N[C@@H](CCC(=O)O)C(=O)O)cc1)N2C=O (mixture of isomers) [Folinic acid], the normalised viability ([1]; 0.297 nM) is reported as 94%, the normalised viability ([1]; 2.97 nM) is reported as 92% and the normalised viability ([1]; 9.9 nM) is reported as 97.6%. The normalised viability ([2]; 0.99 nM) was 100%, the normalised viability ([2]; 99 nM) was 123% and the normalised viability ([2]; 990 nM) was 118%. It also gave a normalised viability ([3]; 0.99 nM) of 105%, a normalised viability ([3]; 99 nM) of 110% and a normalised viability ([3]; 990 nM) of 108%. For the same compound, the normalised viability ([4]; 0.297 nM) was 122%, the normalised viability ([4]; 2.97 nM) was 115% and the normalised viability ([4]; 9.9 nM) was 92.2%. It also gave a normalised viability ([5]; 0.99 nM) of 121%, a normalised viability ([5]; 99 nM) of 87.8% and a normalised viability ([5]; 990 nM) of 107%. It also gave a normalised viability ([6]; 0.297 nM) of 92.2%, a normalised viability ([6]; 2.97 nM) of 88.9% and a normalised viability ([6]; 9.9 nM) of 96.6%. For the same compound, the normalised viability ([7]; 0.99 nM) was 106%, the normalised viability ([7]; 99 nM) was 107% and the normalised viability ([7]; 990 nM) was 94.4%. For the same compound, the normalised viability ([8]; 0.99 nM) was 111%, the normalised viability ([8]; 99 nM) was 106% and the normalised viability ([8]; 990 nM) was 118%. The normalised viability ([9]; 0.99 nM) was 92.7%, the normalised viability ([9]; 99 nM) was 95.8% and the normalised viability ([9]; 990 nM) was 92%. For the same compound, the normalised viability ([10]; 0.99 nM) was 100%, the normalised viability ([10]; 99 nM) was 105% and the normalised viability ([10]; 990 nM) was 102%. It also gave a normalised viability ([11]; 0.99 nM) of 106%, a normalised viability ([11]; 99 nM) of 99.6% and a normalised viability ([11]; 990 nM) of 116%. It also gave a normalised viability ([12]; 0.297 nM) of 96.2%, a normalised viability ([12]; 2.97 nM) of 93.9% and a normalised viability ([12]; 9.9 nM) of 99.8%. For the same compound, the normalised viability ([13]; 0.99 nM) was 115%, the normalised viability ([13]; 99 nM) was 107% and the normalised viability ([13]; 990 nM) was 115%. For the same compound, the normalised viability ([14]; 0.297 nM) was 110%, the normalised viability ([14]; 2.97 nM) was 85% and the normalised viability ([14]; 9.9 nM) was 109%. It also gave a normalised viability ([15]; 0.99 nM) of 123%, a normalised viability ([15]; 99 nM) of 112% and a normalised viability ([15]; 990 nM) of 123%. The normalised viability ([16]; 0.297 nM) was 110%, the normalised viability ([16]; 2.97 nM) was 109% and the normalised viability ([16]; 9.9 nM) was 103%. For the same compound, the normalised viability ([17]; 0.99 nM) was 95.3%, the normalised viability ([17]; 99 nM) was 98.6% and the normalised viability ([17]; 990 nM) was 116%. It also gave a normalised viability ([18]; 0.099 nM) of 92.7%, a normalised viability ([19]; 0.099 nM) of 101% and a normalised viability ([20]; 0.099 nM) of 95.4%. The normalised viability ([21]; 0.099 nM) was 131%, the normalised viability ([22]; 0.099 nM) was 105% and the normalised viability ([23]; 0.099 nM) was 107%. For the same compound, the normalised viability ([24]; 0.099 nM) was 105%, the normalised viability ([25]; 0.099 nM) was 113% and the normalised viability ([26]; 0.099 nM) was 112%.

From the supplement of paper PMC4862054
